Here are results for 1 substance from patent publication US10194659B2, “Active compound combinations” (BAYER CROPSCIENCE AKTIENGESELLSCHAFT, priority 2014, dated 2019).

For assay [1], the system named is Pyrenophora teres. The assay can be described thus: In vivo preventive Pyrenophora teres test (barley). The following applies: evaluated 8 days after inoculation. The procedure: (§1) To produce a suitable preparation of active compound, 1 part by weight of active compound or active compound combination is mixed with the stated amounts of solvent and emulsifier, and the concentrate is diluted with water to the desired concentration. To test for preventive activity, young plants are sprayed with the preparation of active compound or active compound combination at the stated rate of application. After the spray coating has been dried, the plants are sprayed with a spore suspension of Pyrenophora teres. The plants remain for 48 hours in an incubation cabinet at approximately 20° C. and a relative atmospheric humidity of approximately 100%. The plants are placed in the greenhouse at a temperature of approximately 20° C. and a relative atmospheric humidity of approximately 80%.
(§2) The test is evaluated 8 days after the inoculation. 0% means an efficacy which corresponds to that of the untreated control, while an efficacy of 100% means that no disease is observed.

The test system of assay [2] is Puccinia triticina. The assay can be described thus: In vivo preventive Puccinia triticina test (wheat). The following applies: 12.5 ppm a.i., evaluated 8 days after inoculation. As for the experimental part:
as §1, with “Puccinia triticina.” for “Pyrenophora teres.”
as §2

Assay [3] deals with Blumeria graminis f.sp. hordei. In words: In vivo preventive Blumeria test (barley). The following applies: 100 ppm a.i., evaluated 7 days after inoculation. The procedure:
To produce a suitable preparation of active compound, 1 part by weight of active compound or active compound combination is mixed with the stated amounts of solvent and emulsifier, and the concentrate is diluted with water to the desired concentration. To test for preventive activity, young plants are sprayed with the preparation of active compound or active compound combination at the stated rate of application. After the spray coating has been dried, the plants are dusted with spores of Blumeria graminis f.sp. hordei. The plants are placed in the greenhouse at a temperature of approximately 18° C. and a relative atmospheric humidity of approximately 80% to promote the development of mildew pustules.
The test is evaluated 7 days after the inoculation. 0% means an efficacy which corresponds to that of the untreated control, while an efficacy of 100% means that no disease is observed.

Assay [4] concerns Leptosphaeria nodorum. In words: In vivo preventive Leptosphaeria nodorum test (wheat). To be noted: evaluated 8 days after inoculation. The procedure: as §1, with “suspension of Leptosphaeria nodorum. The plants” for “suspension of Pyrenophora teres. The plants”, “of approximately 25° C. and” for “of approximately 20° C. and”
as §2

For assay [5], the system named is Septoria tritici. The assay can be described thus: In vivo preventive Septoria tritici test (wheat). To be noted: 25 ppm a.i., evaluated 21 days after inoculation. As for the experimental part:
as §1, with “suspension of Septoria tritici. The plants” for “suspension of Pyrenophora teres. The plants”, “of approximately 100% and afterwards for 60 hours at approximately 15° C. in a translucent incubation cabinet at a relative atmospheric humidity of approximately 100%. The” for “of approximately 100%. The”, “of approximately 15° C. and” for “of approximately 20° C. and”
The test is evaluated 21 days after the inoculation. 0% means an efficacy which corresponds to that of the untreated control, while an efficacy of 100% means that no disease is observed.

With fluopyram [1.006, reference compound], the “Efficacy in % found” value amounted to 33% in assay [1] (12.5 ppm a.i.); 75% in assay [1] (50 ppm a.i.); 0% in assay [2]; 71% in assay [3]; 14% in assay [4] (12.5 ppm a.i.); 14% in assay [4] (25 ppm a.i.). For the same substance, in assay [5], the “Efficacy in % found” value is listed as 17%.
